{"source": "patent US7576113B2", "about": "“Use of (E)-5-(4-chlorbenzyliden)-2,2-dimethyl-1-(1H-1,2,4-triazol-1-ylmethyl) cyclopentanol for combating rust attacks on soya plants” (BASF Aktiengesellschaft, priority 2004, dated 2009)", "format_in_all_cases": "in vivo", "key": {"Phakopsora pachyrhizi [1]": {"test_system": "Phakopsora pachyrhizi", "assay": "Curative treatment of diseased soybean plants, field experiments", "procedure": "In field experiments, different varieties of soybean plants whose leaves were already infested with Phakopsora pachyrhizi were treated with an aqueous triticonazole preparation using equipment conventionally used under practice conditions. The application rates were from 20 to 200 g/ha. 25 days after the treatment, the disease level on the untreated, but infested, leaves had developed to such an extent that it covered 50% of the leaf area. In the treated plants, in contrast, Phakopsora pachyrhizi disease had only reached a maximum of 25%."}, "Phakopsora pachyrhizi [2]": {"test_system": "Phakopsora pachyrhizi", "assay": "Protective treatment of soybean plants, field experiments", "procedure": "In field experiments, different varieties of soybean plants were treated with an aqueous triticonazole preparation. The application rates amounted to 20 to 200 g/ha. Thereafter, the plants were inoculated with Phakopsora pachyrhizi. 25 days after the treatment, the disease level on the untreated, but infested, leaves had developed to such an extent that it covered 50% of the leaf area. In the treated plants, in contrast, Phakopsora pachyrhizi disease had only reached a maximum of 25%."}, "Phakopsora pachyrhizi [3]": {"test_system": "Phakopsora pachyrhizi", "assay": "Seed treatment of soybean c.v. Embrapa 48, rust disease of leaf areas", "conditions": "seed treatment 12.5, 25, 50, 100 and 250 g per 100 kg of seed, all cases, after 50 days; untreated at least 50%", "procedure": "Seed of soybean plants c.v. “Embrapa 48” were treated with a composition suitable for seed treatment, comprising triticonazole as active substance, at application rates in the range of from 12.5 g, 25 g, 50 g, 100 g and 250 g of triticonazole per 100 kg of seed. Thereafter, the seed was sown. The soybean plants thus grown were then inoculated with Phakopsora pachyrhizi. After 50 days, the level of rust disease of the leaf areas was determined. The disease level in the plants from untreated seed was at least 50%, whereas the disease level of the leaf area in plants from treated seed was less than 25% in all cases."}, "Phakopsora pachyrhizi [4]": {"test_system": "Phakopsora pachyrhizi", "assay": "Protective activity against soybean rust via seed treatment, field experiment in Brazil", "conditions": "cultivar IAC 8.2, 60 DAT, untreated 40", "procedure": "A defined amound of a commercial ready-to-used formulation of Triticonazole (suspension concentrate, concentration of active ingredient 200 g/l), corresponding to the desired application (a.r.) rate of 5, 15, 30 und 50 g ai/100 kg soybean was diluted with water to a total volume of 1 Ltr./100 kg Soybean.\nSoybean seeds of the cultivar “IAC 8.2” were treated in a commercial device for dressing seeds with the thus prepared aqueous suspension of triticonazole and then seeded in a field experiment in Brazil. The leaves of the soybean plants thus grown were inoculated at an appropriate growing stage with a spore suspension of soybean rust (Phakopsora pachyrhizi). Thereafter the plants were kept wet for 6-8 h overnight by means of a finely dripping sprinkling device. During this time the spores germinated and their germ tubes penetrated into the leaf tissue. 60 days after treatment (60 DAT) or seeding, respectively, the extent of rust formation on the leaves of the infected plants was determinated."}, "Phakopsora pachyrhizi [5]": {"test_system": "Phakopsora pachyrhizi", "assay": "Curative activity against soybean rust via spray application, potted seedlings in greenhouse", "conditions": "3 days after inoculation, cultivar Hutcheson, untreated 80", "procedure": "A commercial ready-to-used formulation of Triticonazole (suspension concentrate, concentration of active ingredient 200 g/l) was diluted with water to the active ingredient concentraten (act.conc.) given in Table 2.\nLeaves of potted soybean seedlings of the cultivar “Hutcheson” were inoculated with a suspension of spores of soybean rust (Phakopsora pachyrhizi). The pots were placed in a chamber with high atmospheric humidity (90 to 95%) at 22 to 24° C. for 24 hours. During this time, the spores germinated and the germ tubes penetrated into the leaf tissue. After 3 days, the infected plants were sprayed to runoff point with an aqueous suspension having the concentration of active compound as given in table 2. The suspensions or emulsions were prepared as described above. After the spray coating was dry, the test plants were cultivated in a greenhouse at temperatures between 22 and 24° C. and at 90% relative humidity for 17 days. The extent of the rust development on the leaves was then determined."}}, "data": [{"smiles": "CC1(C)CC/C(=C\\c2ccc(Cl)cc2)C1(O)Cn1cncn1", "note": "(centres unmarked) [triticonazole, (E)-5-(4-chlorobenzylidene)-2,2-dimethyl-1-(1H-1,2,4-triazol-1-ylmethyl)cyclopentanol]", "values": [{"measurement": "yield in comparison with the untreated control", "setting": "Phakopsora pachyrhizi [1]; 20 to 200 g/ha, field", "result": "markedly improved"}, {"measurement": "Phakopsora pachyrhizi disease level (leaf area covered)", "setting": "Phakopsora pachyrhizi [1]; aqueous preparation 20 to 200 g/ha, 25 days after treatment, different soybean varieties, untreated 50%", "result": "≤ 25", "unit": "%"}, {"measurement": "yield in comparison with the untreated control", "setting": "Phakopsora pachyrhizi [2]; 20 to 200 g/ha, field", "result": "markedly improved"}, {"measurement": "Phakopsora pachyrhizi disease level (leaf area covered)", "setting": "Phakopsora pachyrhizi [2]; aqueous preparation 20 to 200 g/ha, inoculated after treatment, 25 days after treatment, untreated 50%", "result": "≤ 25", "unit": "%"}, {"measurement": "disease level of the leaf area", "setting": "Phakopsora pachyrhizi [3]", "result": "less than 25%"}, {"measurement": "% infected leaf area (60 DAT)", "setting": "Phakopsora pachyrhizi [4]; seed treatment a.r. 5 g/100 kg", "result": 23, "unit": "%"}, {"measurement": "% infected leaf area (60 DAT)", "setting": "Phakopsora pachyrhizi [4]; seed treatment a.r. 15 g/100 kg", "result": 11, "unit": "%"}, {"measurement": "% infected leaf area (60 DAT)", "setting": "Phakopsora pachyrhizi [4]; seed treatment a.r. 30 g/100 kg", "result": 9, "unit": "%"}, {"measurement": "% infected leaf area (60 DAT)", "setting": "Phakopsora pachyrhizi [4]; seed treatment a.r. 50 g/100 kg", "result": 3, "unit": "%"}, {"measurement": "% infected leaf area (17 DAT)", "setting": "Phakopsora pachyrhizi [5]; spray act. conc. 1 ppm", "result": 9, "unit": "%"}, {"measurement": "% infected leaf area (17 DAT)", "setting": "Phakopsora pachyrhizi [5]; spray act. conc. 4 ppm", "result": 1, "unit": "%"}]}]}
